From patent US20260250290A1 (BRISTOL-MYERS SQUIBB COMPANY, priority 2023, published 2026) come the findings set out here.

pIC50: −log10 of the molar value. Structures can show the parent of a compound that is named as a salt.

In this experiment the target is T1, full length SGK1 (Homo sapiens, UniProt O00141).
T1 construct: 125 μM full length SGK1 (Life Technologies Part #PR7358A); purchased Life Technologies PR7358A
T1 sequence (O00141 1-431): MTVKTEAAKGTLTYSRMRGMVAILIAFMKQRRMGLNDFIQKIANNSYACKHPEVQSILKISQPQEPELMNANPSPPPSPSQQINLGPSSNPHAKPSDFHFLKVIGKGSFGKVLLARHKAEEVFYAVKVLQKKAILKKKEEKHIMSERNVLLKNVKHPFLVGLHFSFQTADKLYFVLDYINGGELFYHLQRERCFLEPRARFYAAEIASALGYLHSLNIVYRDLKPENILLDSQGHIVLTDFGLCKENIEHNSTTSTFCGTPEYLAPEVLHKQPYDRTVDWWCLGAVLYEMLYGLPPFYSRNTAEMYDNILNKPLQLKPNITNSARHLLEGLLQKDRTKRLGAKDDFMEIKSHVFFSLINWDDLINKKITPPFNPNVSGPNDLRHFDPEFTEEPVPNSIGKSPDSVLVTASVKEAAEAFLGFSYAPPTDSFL
Briefly: SGK1 inhibition Assay A (Caliper LabChip electrophoretic separation of fluorescent peptide substrate and phosphorylated product). The following applies: Assay A; 20 μM ATP, 40 min incubation; read-out: SGK1 IC50. Type of experiment: biochemical.
Consider `Nc1ncnn2c(-c3ccc(-n4cnnn4)cc3)cc(N3CCC[C@@H](NC(=O)c4ccc(Cl)s4)C3)c12` [Example 249, (R)-N-(1-(7-(4-(1H-tetrazol-1-yl)phenyl)-4-aminopyrrolo[2,1-f][1,2,4]triazin-5-yl)piperidin-3-yl)-5-chlorothiophene-2-carboxamide, TFA], for which the negative-log IC50 (pIC50) (as a rule, the negative decadic logarithm of the IC50, by convention in mol/L) is 9.00. As for `CN(C)CCOc1cc(Cl)sc1C(=O)N[C@@H]1CCCN(c2cc(-c3cccc(C=O)c3)n3ncnc(N)c23)C1` [Example 283, (R)-N-(1-(4-amino-7-(3-formylphenyl)pyrrolo[2,1-f][1,2,4]triazin-5-yl)piperidin-3-yl)-5-chloro-3-(2-(dimethylamino)ethoxy) thiophene-2-carboxamide], the figure is 8.22. On to `CC(=O)N1CC=C(c2cc(N3CCC[C@@H](NC(=O)c4nc(N5CCN(C)CC5)ccc4F)C3)c3c(N)ncnn23)C1` [Example 744, (R)-N-(1-(7-(1-acetyl-2,5-dihydro-1H-pyrrol-3-yl)-4-aminopyrrolo[2,1-f][1,2,4]triazin-5-yl)piperidin-3-yl)-3-fluoro-6-(4-methylpiperazin-1-yl)picolinamide], for which the negative-log IC50 (pIC50) was 8.10.

For the compound `CC(=O)N1CCC(Oc2cc(C(F)F)sc2C(=O)N[C@@H]2CCCN(c3cc(-c4ccc(C#N)nc4)n4ncnc(N)c34)C2)CC1` [Example 416, (R)-3-((1-acetylpiperidin-4-yl)oxy)-N-(1-(4-amino-7-(6-cyanopyridin-3-yl)pyrrolo[2,1-f][1,2,4]triazin-5-yl)piperidin-3-yl)-5-(difluoromethyl)thiophene-2-carboxamide], the pIC50 is 7.54.

With `CS(=O)(=O)c1ccc(-c2cc(N3CCC[C@@H](NC(=O)c4ccccc4OCCO)C3)c3c(N)ncnn23)cc1` [Example 59, (R)-N-(1-(4-amino-7-(4-(methylsulfonyl)phenyl)pyrrolo[2,1-f][1,2,4]triazin-5-yl)piperidin-3-yl)-2-(2-hydroxyethoxy) benzamide], the pIC50 is 8.00. As for `COCCOc1cc(Cl)sc1C(=O)N[C@@H]1CCCN(c2cc(-c3ccc(C(N)=O)c(F)c3)n3ncnc(N)c23)C1` [Example 162, (R)-N-(1-(4-amino-7-(4-carbamoyl-3-fluorophenyl)pyrrolo [2,1-f][1,2,4]triazin-5-yl)piperidin-3-yl)-5-chloro-3-(2-methoxyethoxy) thiophene-2-carboxamide], the figure is 8.30; as for `N#Cc1ncc(-c2cc(N3CCC[C@@H](NC(=O)c4ccc(C(F)F)s4)C3)c3c(N)ncnn23)cc1F` [Example 523, (R)-N-(1-(4-amino-7-(6-cyano-5-fluoropyridin-3-yl)pyrrolo[2,1-f][1,2,4]triazin-5-yl)piperidin-3-yl)-5-(difluoromethyl)thiophene-2-carboxamide], 6.93. As for `CC(=O)N1CC=C(c2cc(N3CCC[C@@H](NC(=O)c4sc(C(F)F)cc4C4CCNC4)C3)c3c(N)ncnn23)C1` (stereo partly drawn) [Example 405, N-((R)-1-(7-(1-acetyl-2,5-dihydro-1H-pyrrol-3-yl)-4-aminopyrrolo[2,1-f][1,2,4]triazin-5-yl)piperidin-3-yl)-5-(difluoromethyl)-3-(pyrrolidin-3-yl)thiophene-2-carboxamide], the figure is 6.52; as for `CC(=O)N1CC=C(c2cc(N3CCC[C@@H](NC(=O)Oc4ccccc4)C3)c3c(N)ncnn23)C1` [Example 873, phenyl (R)-(1-(7-(1-acetyl-2,5-dihydro-1H-pyrrol-3-yl)-4-aminopyrrolo[2,1-f][1,2,4]triazin-5-yl)piperidin-3-yl)carbamate], 6.03. As to `CS(=O)(=O)c1ccc(-c2cc(N3CCC[C@@H](NC(=O)c4ccc(F)s4)C3)c3c(N)ncnn23)cc1` [Example 93, (R)-N-(1-(4-amino-7-(4-(methylsulfonyl)phenyl)pyrrolo[2,1-f][1,2,4]triazin-5-yl)piperidin-3-yl)-5-fluorothiophene-2-carboxamide], the negative-log IC50 (pIC50) was 8.30.

With `Nc1ncnn2c(-c3cncnc3)cc(N3CCC[C@@H](NC(=O)c4cc5cc(F)ccc5[nH]4)C3)c12` [Example 516, (R)-N-(1-(4-amino-7-(pyrimidin-5-yl)pyrrolo[2,1-f][1,2,4]triazin-5-yl)piperidin-3-yl)-5-fluoro-1H-indole-2-carboxamide], the negative logarithm of the IC50 (pIC50) is 6.79.

On to `CN1CCN(CCOc2cc(Cl)sc2C(=O)N[C@@H]2CCCN(c3cc(C4=CCN(S(C)(=O)=O)C4)n4ncnc(N)c34)C2)CC1` [Example 273, (R)—N-(1-(4-amino-7-(1-(methylsulfonyl)-2,5-dihydro-1H-pyrrol-3-yl)pyrrolo[2,1-f][1,2,4]triazin-5-yl)piperidin-3-yl)-5-chloro-3-(2-(4-methylpiperazin-1-yl)ethoxy)thiophene-2-carboxamide], for which the pIC50 is 8.30. Under `CC(=O)NCCOc1cc(C(F)F)sc1C(=O)N[C@@H]1CCCN(c2cc(-c3cnc(C#N)c(C)c3)n3ncnc(N)c23)C1` [Example 426, (R)-3-(2-acetamidoethoxy)-N-(1-(4-amino-7-(6-cyano-5-methylpyridin-3-yl)pyrrolo[2,1-f][1,2,4]triazin-5-yl)piperidin-3-yl)-5-(difluoromethyl)thiophene-2-carboxamide] stands 7.52; under `Cc1ccc(C(=O)N(C)[C@@H]2CCCN(c3cc(-c4ccc(S(C)(=O)=O)cc4)n4ncnc(N)c34)C2)s1` [Example 122, (R)—N-(1-(4-amino-7-(4-(methylsulfonyl)phenyl)pyrrolo[2,1-f][1,2,4]triazin-5-yl)piperidin-3-yl)-N,5-dimethylthiophene-2-carboxamide], 7.54; under `CC(=O)N1CC=C(c2cc(N3CCC[C@@H](NC(=O)c4cc(N5CCOCC5)c(C)s4)C3)c3c(N)ncnn23)C1` [Example 271, (R)—N-(1-(7-(1-acetyl-2,5-dihydro-1H-pyrrol-3-yl)-4-aminopyrrolo[2,1-f][1,2,4]triazin-5-yl)piperidin-3-yl)-5-methyl-4-morpholinothiophene-2-carboxamide], 7.66. `CC(=O)N1CC=C(c2cc(N3CCC[C@@H](NC(=O)c4sc(Cl)cc4OC4CC5CC4CN5)C3)c3c(N)ncnn23)C1` (stereo partly drawn) [Example 606, 3-((2-azabicyclo[2.2.1]heptan-5-yl)oxy)-N-((R)-1-(7-(1-acetyl-2,5-dihydro-1H-pyrrol-3-y1)-4-aminopyrrolo[2,1-f][1,2,4]triazin-5~yl)piperidin-3-y1)-5-chlorothiophene-2-carboxamide]: the pIC50 is 8.05. With `Cc1ccc(C(=O)N[C@@H]2CCCN(c3c(Cl)c(-c4ccc(S(C)(=O)=O)cc4)n4ncnc(N)c34)C2)s1` [Example 195, N-[(3R)-1-[4-amino-6-chloro-7-(4-methanesulfonylphenyl)pyrrolo[2,1-f][1,2,4]triazin-5-yl]piperidin-3-yl]-5-methylthiophene-2-carboxamide], the negative-log IC50 (pIC50) was 6.97. Under `CN(C)CCOc1cc(C(F)F)sc1C(=O)N[C@@H]1CCCN(c2cc(-c3ccc(C=O)cc3)n3ncnc(N)c23)C1` [Example 308, (R)-N-(1-(4-amino-7-(4-formylphenyl)pyrrolo[2,1-f][1,2,4]triazin-5-yl)piperidin-3-yl)-5-(difluoromethyl)-3-(2-(dimethylamino)ethoxy)thiophene-2-carboxamide] stands 9.00; under `COC(=O)N1CC=C(c2cc(N3CCC[C@@H](NC(=O)c4sc5ccccc5c4OCCN(C)C)C3)c3c(N)ncnn23)C1` [Example 661, Methyl (R)-3-(4-amino-5-(3-(3-(2-(dimethylamino)ethoxy)benzo[b]thiophene-2-carboxamido)piperidin-1-yl)pyrrolo[2,1-f][1,2,4]triazin-7-yl)-2,5-dihydro-1H-pyrrole-1-carboxylate], 7.89. As for `CC(C)n1cc(-c2cc(N3CCC[C@@H](NC(=O)c4cccc(N5CCN(C)CC5)n4)C3)c3c(N)ncnn23)ccc1=O` [Example 792, (R)-N-(1-(4-amino-7-(1-isopropyl-6-oxo-1,6-dihydropyridin-3-yl)pyrrolo[2,1-f][1,2,4]triazin-5-yl)piperidin-3-yl)-6-(4-methylpiperazin-1-yl)picolinamide], the figure is 7.54. As for `N#Cc1ccc(-c2cc(N3CCC[C@@H](NC(=O)c4sc(C(F)F)cc4C4CCNCC4)C3)c3c(N)ncnn23)cn1` [Example 395, (R)-N-(1-(4-amino-7-(6-cyanopyridin-3-yl)pyrrolo[2,1-f][1,2,4]triazin-5-yl)piperidin-3-yl)-5-(difluoromethyl)-3-(piperidin-4-yl)thiophene-2-carboxamide], the figure is 6.68; as for `Cc1nc(C)c(C(=O)N[C@@H]2CCCN(c3cc(-c4ccnc(C(F)F)c4)n4ncnc(N)c34)C2)s1` [Example 485, (R)-N-(1-(4-amino-7-(2-(difluoromethyl)pyridin-4-yl)pyrrolo[2,1-f][1,2,4]triazin-5-yl)piperidin-3-yl)-2,4-dimethylthiazole-5-carboxamide], 7.59; as for `Nc1ncnn2c(C3=CCN(CC(=O)O)C3)cc(N3CCC[C@@H](NC(=O)c4ccc(Cl)s4)C3)c12` [Example 912, (R)-2-(3-(4-amino-5-(3-(5-chlorothiophene-2-carboxamido)piperidin-1-yl)pyrrolo[2,1-f][1,2,4]triazin-7-yl)-2,5-dihydro-1H-pyrrol-1-yl)acetic acid], 6.67.

Consider `CC(=O)N1CC=C(c2cc(N3CCC[C@@H](NC(=O)c4cccnc4)C3)c3c(N)ncnn23)C1` [Example 729, (R)-N-(1-(7-(1-acetyl-2,5-dihydro-1H-pyrrol-3-yl)-4-aminopyrrolo[2,1-f][1,2,4]triazin-5~ yl)piperidin-3-yl)nicotinamide], for which the negative logarithm of the IC50 (pIC50) was 6.95.
